This passage reports EC50 results from patent publication US10407445B2, “Hepatitis C virus inhibitors” (ENANTA PHARMACEUTICALS, INC., priority 2013, dated 2019).

Holding throughout (assay type): cell-based
In test [1] the test system is GT1a replicon encoding NS5A mutation Y93C. Nature of the test: Transient replication assay, GT1a replicon with NS5A mutation Y93C. Particulars: Hepatitis C virus, read-out: EC50 1a Y93C.
The subject of another test is HCV GT 3a replicon. Nature of the test: HCV replicon assay, GT2a chimeric replicon expressing NS5A from GT3a strain S52. Particulars: Hepatitis C virus, 72 h, read-out: EC50 3a. The essentials: (§1)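 Stable Huh-7.5 lines carried JFH-1 subgenomic replicons with hRluc-Neo reporter, in which NS5A was swapped for GT3a strain S52 or GT2a strain J6 NS5A. Renilla luciferase was read after 72 h relative to DMSO controls.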

Test [2] deals with GT1a replicon encoding NS5A mutation Q30R. The test is described as follows: Transient replication assay, GT1a replicon with NS5A mutation Q30R. The note with it: Hepatitis C virus, read-out: EC50 1a Q30R.
Test [3] deals with GT1a replicon encoding NS5A mutation L31V. Nature of the test: Transient replication assay, GT1a replicon with NS5A mutation L31V. The note with it: Hepatitis C virus, read-out: EC50 1a L31V.
The next test concerns HCV GT 1b replicon. The test is described as follows: HCV replicon assay, stable GT 1b replicon (Renilla luciferase). The note with it: Hepatitis C virus, GT1B, 72 h. The essentials:
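Stable Huh-7.5-based GT1b replicon (Con1-derived) carrying hRluc-Neo, 4000 cells/well seeded onto a sixteen-point half-log compound series in G418-free, phenol red-free medium. After 72 h, Renilla luciferase is read relative to DMSO controls; CC50 in the same cells by CellTiter-Glo.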

In another test the test system is HCV GT 2a-J6 replicon. The test is described as follows: HCV replicon assay, GT2a chimeric replicon expressing NS5A from GT2a strain J6. The note with it: Hepatitis C virus, 72 h, read-out: EC50 2a J6. In a few lines: as §1

In the case of `COC(=O)N[C@H](C(=O)N1C[C@@]2(CCOC2)C[C@H]1c1ncc(-c2ccc(-c3ccc4c(ccc5nc([C@@H]6CCCN6C(=O)[C@@H](NC(=O)OC)C(C)C)[nH]c54)c3)cc2)[nH]1)C(C)C` [Compound 50], the EC50 stood at 400 pM in test [1]; 10000 pM in the test with HCV GT 3a replicon; 400 pM in test [2]; 1000 pM in test [3]; 16 pM in the test on HCV GT 1b replicon; 13000 pM in the test on HCV GT 2a-J6 replicon.

Take `COC(=O)N[C@H](C(=O)N1CCC[C@H]1c1ncc(-c2ccc(-c3ccc4c(ccc5nc([C@@H]6C[C@]7(CCOC7)CN6C(=O)[C@@H](NC(=O)OC)C(C)C)[nH]c54)c3)cc2)[nH]1)C(C)C` [Compound 51]: the EC50 in test [1] came out at 70 pM; with HCV GT 3a replicon, 2000 pM; in test [2] it was 200 pM; in test [3] it was 400 pM; with HCV GT 1b replicon, 16 pM; with HCV GT 2a-J6 replicon it was 4000 pM.

Consider `COC(=O)N[C@H](C(=O)N1C[C@]2(CCCCO2)C[C@H]1c1nc(-c2ccc(-c3ccc4c(ccc5nc([C@@H]6CCCN6C(=O)[C@@H](NC(=O)OC)C(C)C)[nH]c54)c3)cc2)c[nH]1)C(C)C` [Example 2], for which the EC50 in test [1] is 200 pM; in the test on HCV GT 3a replicon, 1000 pM; in test [2], 30 pM; in test [3] it was 300 pM; in the test on HCV GT 1b replicon, 7 pM; in the test with HCV GT 2a-J6 replicon, 27000 pM.

With `COC(=O)N[C@H](C(=O)N1C[C@@]2(CCCCO2)C[C@H]1c1nc(-c2ccc(-c3ccc4c(ccc5nc([C@@H]6CCCN6C(=O)[C@@H](NC(=O)OC)C(C)C)[nH]c54)c3)cc2)c[nH]1)C(C)C` [Example 3], the EC50 in test [1] is 700 pM; with HCV GT 3a replicon, 156000 pM; in test [2], 5000 pM; in test [3] it was 44000 pM; in the test on HCV GT 1b replicon it was 40 pM; in the test on HCV GT 2a-J6 replicon, 267000 pM.

In the case of `COC(=O)N[C@H](C(=O)N1C[C@]2(CCCO2)C[C@H]1c1ncc(-c2ccc(-c3ccc4c(ccc5nc([C@@H]6CCCN6C(=O)[C@@H](NC(=O)OC)C(C)C)[nH]c54)c3)cc2)[nH]1)C(C)C` [Example 81], the concentration giving a half-maximal response (EC50) was 200 pM in test [1]; 3000 pM in the test on HCV GT 3a replicon; 50 pM in test [2]; 400 pM in test [3]; 13 pM in the test on HCV GT 1b replicon; 45000 pM with HCV GT 2a-J6 replicon.

On to `COC(=O)N[C@H](C(=O)N1C[C@@]2(CCCO2)C[C@H]1c1ncc(-c2ccc(-c3ccc4c(ccc5nc([C@@H]6CCCN6C(=O)[C@@H](NC(=O)OC)C(C)C)[nH]c54)c3)cc2)[nH]1)C(C)C` [Example 82], for which the EC50 was found to be 200 pM in test [1]; 5000 pM with HCV GT 3a replicon; 3000 pM in test [2]; 46000 pM in test [3]; 8 pM in the test with HCV GT 1b replicon; 40000 pM in the test with HCV GT 2a-J6 replicon.

In the case of `COC(=O)N[C@H](C(=O)N1CC2(CCOCC2)C[C@H]1c1ncc(-c2ccc(-c3ccc4c(ccc5nc([C@@H]6CCCN6C(=O)[C@@H](NC(=O)OC)C(C)C)[nH]c54)c3)cc2)[nH]1)C(C)C` [Example 83], the EC50 in test [1] is 1000 pM; with HCV GT 3a replicon, 700 pM; in test [2], 1000 pM; in test [3], 6000 pM; in the test with HCV GT 1b replicon, 42 pM; in the test with HCV GT 2a-J6 replicon it was 32000 pM.

For the compound `COC(=O)N[C@H](C(=O)N1CCC[C@H]1c1nc2ccc3cc(-c4ccc5c(ccc6nc([C@@H]7CCCN7C(=O)[C@@H](NC(=O)OC)C(C)C)[nH]c65)c4)ccc3c2[nH]1)C(C)C` [Example 101], the EC50 worked out at 500 pM in test [1]; 50 pM in the test on HCV GT 3a replicon; 200 pM in test [2]; 6000 pM in test [3]; 21 pM with HCV GT 1b replicon; 100 pM in the test with HCV GT 2a-J6 replicon.

For `COC(=O)N[C@H](C(=O)N1CCC[C@H]1c1ncc(-c2ccc(-c3ccc4c(ccc5nc([C@@H]6CCCN6C(=O)[C@@H](NC(=O)OC)C(C)C)[nH]c54)c3)cc2)[nH]1)C(C)C` [Example 102], the concentration for a half-maximal effect (EC50) in test [1] amounted to 600 pM; with HCV GT 3a replicon, 60 pM; in test [2], 1000 pM; in test [3] it was 8000 pM; in the test with HCV GT 1b replicon, 14 pM; with HCV GT 2a-J6 replicon, 1000 pM.

Turning to `COC(=O)N[C@H](C(=O)N1CCC[C@H]1c1nc2ccc(C#Cc3ccc4c(ccc5nc([C@@H]6CCCN6C(=O)[C@@H](NC(=O)OC)C(C)C)[nH]c54)c3)cc2[nH]1)C(C)C` [Example 103], the 50% effective concentration (EC50) worked out at 2000 pM in test [1]; 300 pM with HCV GT 3a replicon; 3000 pM in test [2]; 29000 pM in test [3]; 4 pM in the test with HCV GT 1b replicon; 16000 pM in the test on HCV GT 2a-J6 replicon.
